Measured values as given in patent US20250228239A1, “MOLECULES HAVING PESTICIDAL UTILITY, AND INTERMEDIATES, COMPOSITIONS, AND PROCESSES, RELATED THERETO” (priority 2024, published 2025).

Experiments:
[1] = tested on: Cabbage Looper (Trichoplusia ni, TRIPNI); experiment: Bioassays on Cabbage Looper (CL), 128-well diet tray assay; type: in vivo; conditions: Trichoplusia ni; Table ABC: Biological Results; species CL; read-out: CL
Outline: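 Second-instar larvae (1–5 per well) placed on artificial diet surface-treated with 50 μg/cm^2 test molecule applied in 90:10 acetone-water and dried. Held at 25° C., 14:10 light-dark, for five to seven days. Percent mortality scored per well and averaged over eight wells.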

[2] = tested on: Beet Armyworm (Spodoptera exigua, LAPHEG); experiment: Bioassays on Beet Armyworm (BAW), 128-well diet tray assay; type: in vivo; conditions: Spodoptera exigua; Table ABC: Biological Results; species BAW; read-out: BAW
Outline: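 One to five second-instar larvae per well on artificial diet surface-treated with 50 μg/cm^2 test molecule (applied in 90:10 acetone-water, dried), eight wells per compound. Trays held vented at 25° C., 14:10 light-dark for five to seven days; percent mortality averaged over the eight wells.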

CC(=O)Nc1c(F)ccc(NC(=O)c2cc(NC(=O)[C@H]3[C@H](c4ccc(Cl)c(Cl)c4)C3(Cl)Cl)ccc2Cl)c1F [F1083, N-(3-acetamido-2,4-difluorophenyl)-2-chloro-5-((1R,3R)-2,2-dichloro-3-(3,4-dichlorophenyl)cyclopropane-1-carboxamido)benzamide] was tested, and the pest or weed control at 50 µg/cm2 [1] was 50 to 100% and the pest or weed control at 50 µg/cm2 [2] was 50 to 100%.

Compound Nc1c(F)ccc(NC(=O)c2cc(NC(=O)C3C(c4cc(F)cc(Br)c4F)C3(Cl)Cl)ccc2Cl)c1F (stereo not drawn) [F1097, cis-(3-Amino-2,4-difluorophenyl)-5-(3-(3-bromo-2,5-difluorophenyl)-2,2-dichlorocyclopropane-1-carboxamido)-2-chlorobenzamide] has a pest or weed control at 50 µg/cm2 [1] of 50 to 100% and a pest or weed control at 50 µg/cm2 [2] of 50 to 100%.

For O=C(Nc1ccc(F)cc1NC(=O)C(Cl)(Cl)Cl)c1cc(NC(=O)C2C(c3ccc(Cl)c(Cl)c3)C2(Cl)Cl)ccc1Cl (stereo not shown) [F1126], the pest or weed control at 50 µg/cm2 [1] was 50 to 100% and the pest or weed control at 50 µg/cm2 [2] was 50 to 100%.

Compound Nc1c(F)cccc1NC(=O)c1cc(NC(=O)[C@H]2[C@H](c3ccc(F)c(Cl)c3)C2(Cl)Cl)ccc1Cl [F1133, N-(2-Amino-3-fluorophenyl)-2-chloro-5-((1R,3R)-2,2-dichloro-3-(3-chloro-4-fluorophenyl)cyclopropane-1-carboxamido)benzamide] has a pest or weed control at 50 µg/cm2 [1] of 50 to 100% and a pest or weed control at 50 µg/cm2 [2] of 50 to 100%.

In the case of Nc1cc(F)c(F)cc1NC(=O)c1cc(NC(=O)[C@H]2[C@H](c3ccc(F)c(Cl)c3)C2(Cl)Cl)ccc1Cl [F1134, N-(2-Amino-4,5-difluorophenyl)-2-chloro-5-((1R,3R)-2,2-dichloro-3-(3-chloro-4-fluorophenyl)cyclopropane-1-carboxamido)benzamide], the pest or weed control at 50 µg/cm2 [1] is reported as 50 to 100% and the pest or weed control at 50 µg/cm2 [2] is reported as 50 to 100%.

Compound Cc1cc(F)c(NC(=O)c2cc(NC(=O)[C@H]3[C@H](c4ccc(F)c(Cl)c4)C3(Cl)Cl)ccc2Cl)cc1N [F1135, N-(5-Amino-2-fluoro-4-methylphenyl)-2-chloro-5-((1R,3R)-2,2-dichloro-3-(3-chloro-4-fluorophenyl)cyclopropane-1-carboxamido)benzamide] has a pest or weed control at 50 µg/cm2 [1] of 50 to 100% and a pest or weed control at 50 µg/cm2 [2] of 50 to 100%.

In the case of CC(=O)OCCNc1ccc(NC(=O)c2cc(NC(=O)[C@H]3[C@H](c4ccc(F)c(C(F)(F)F)c4)C3(Cl)Cl)ccc2Cl)c(C)c1 [F1144, 2-((4-(2-Chloro-5-((1R,3R)-2,2-dichloro-3-(4-fluoro-3-(trifluoromethyl)phenyl)cyclopropane-1-carboxamido)benzamido)-3-methylphenyl)amino)ethyl acetate], the pest or weed control at 50 µg/cm2 [1] is reported as 50 to 100% and the pest or weed control at 50 µg/cm2 [2] is reported as 50 to 100%.

Work on Cc1cc(NCCO)ccc1NC(=O)c1cc(NC(=O)[C@H]2[C@H](c3ccc(F)c(C(F)(F)F)c3)C2(Cl)Cl)ccc1Cl [F1145, 2-Chloro-5-((1R,3R)-2,2-dichloro-3-(4-fluoro-3-(trifluoromethyl)phenyl)cyclopropane-1-carboxamido)-N-(4-((2-hydroxyethyl)amino)-2-methylphenyl)benzamide] yielded a pest or weed control at 50 µg/cm2 [1] of 50 to 100% and a pest or weed control at 50 µg/cm2 [2] of 50 to 100%.

O=C(Nc1c(F)ccc(NC(=O)c2cc(NC(=O)[C@H]3[C@H](c4ccc(F)c(C(F)(F)F)c4)C3(Cl)Cl)ccc2Cl)c1F)c1ccccc1 [F1179, N-(3-Benzamido-2,4-difluorophenyl)-2-chloro-5-((1R,3R)-2,2-dichloro-3-(4-fluoro-3-(trifluoromethyl)phenyl)cyclopropane-1-carboxamido)benzamide] showed a pest or weed control at 50 µg/cm2 [1] of 50 to 100% and a pest or weed control at 50 µg/cm2 [2] of 50 to 100%.

For O=C(Nc1c(F)ccc(NC(=O)c2cc(NC(=O)[C@H]3[C@H](c4ccc(F)c(C(F)(F)F)c4)C3(Cl)Cl)ccc2Cl)c1F)c1ccc(F)cc1 [F1204, 2-chloro-5-((1R,3R)-2,2-dichloro-3-(4-fluoro-3-(trifluoromethyl)phenyl)cyclopropane-1-carboxamido)-N-(2,4-difluoro-3-(4-fluorobenzamido)phenyl)benzamide], the pest or weed control at 50 µg/cm2 [1] was 50 to 100% and the pest or weed control at 50 µg/cm2 [2] was 50 to 100%.

Compound COc1ccc(C(=O)Nc2c(F)ccc(NC(=O)c3cc(NC(=O)[C@H]4[C@H](c5ccc(F)c(C(F)(F)F)c5)C4(Cl)Cl)ccc3Cl)c2F)cc1 [F1205, 2-Chloro-5-((1R,3R)-2,2-dichloro-3-(4-fluoro-3-(trifluoromethyl)phenyl)cyclopropane-1-carboxamido)-N-(2,4-difluoro-3-(4-methoxybenzamido)phenyl)benzamide] has a pest or weed control at 50 µg/cm2 [1] of 50 to 100% and a pest or weed control at 50 µg/cm2 [2] of 50 to 100%.

Work on O=C(Nc1c(F)ccc(NC(=O)c2cc(NC(=O)[C@H]3[C@H](c4ccc(F)c(C(F)(F)F)c4)C3(Cl)Cl)ccc2Cl)c1F)c1cccnc1 [F1206, N-(3-(2-Chloro-5-((1R,3R)-2,2-dichloro-3-(4-fluoro-3-(trifluoromethyl)phenyl)cyclopropane-1-carboxamido)benzamido)-2,6-difluorophenyl)nicotinamide] yielded a pest or weed control at 50 µg/cm2 [1] of 50 to 100% and a pest or weed control at 50 µg/cm2 [2] of 50 to 100%.

Work on CC(=O)Nc1c(F)ccc(NC(=O)c2cc(NC(=O)[C@H]3[C@H](c4ccc(F)c(C(F)(F)F)c4)C3(Cl)Cl)ccc2Cl)c1F [F1231, N-(3-Acetamido-2,4-difluorophenyl)-2-chloro-5-((1R,3R)-2,2-dichloro-3-(4-fluoro-3-(trifluoromethyl)phenyl)cyclopropane-1-carboxamido)benzamide] yielded a pest or weed control at 50 µg/cm2 [1] of 50 to 100% and a pest or weed control at 50 µg/cm2 [2] of 50 to 100%.

Work on O=C(Nc1c(F)ccc(NC(=O)c2cc(NC(=O)[C@H]3[C@H](c4ccc(F)c(C(F)(F)F)c4)C3(Cl)Cl)ccc2Cl)c1F)c1ccc(F)nc1 [F1258, N-(3-(2-Chloro-5-((1R,3R)-2,2-dichloro-3-(4-fluoro-3-(trifluoromethyl)phenyl)cyclopropane-1-carboxamido)benzamido)-2,6-difluorophenyl)-6-fluoronicotinamide] yielded a pest or weed control at 50 µg/cm2 [1] of 50 to 100% and a pest or weed control at 50 µg/cm2 [2] of 50 to 100%.

In the case of O=C(Nc1ccc(F)c(NC(=O)C(F)F)c1F)c1cc(NC(=O)[C@H]2[C@H](c3cc(Cl)cc(Cl)c3)C2(Cl)Cl)ccc1Cl [F1268, 2-Chloro-5-((1R,3R)-2,2-dichloro-3-(3,5-dichlorophenyl)cyclopropane-1-carboxamido)-N-(3-(2,2-difluoroacetamido)-2,4-difluorophenyl)benzamide], the pest or weed control at 50 µg/cm2 [1] is reported as 50 to 100% and the pest or weed control at 50 µg/cm2 [2] is reported as 50 to 100%.

Compound O=C(Nc1ccc(F)c(NC(=O)C(F)F)c1F)c1cc(NC(=O)[C@H]2[C@H](c3cc(Cl)c(Cl)c(Cl)c3)C2(Cl)Cl)ccc1Cl [F1269, 2-Chloro-5-((1R,3R)-2,2-dichloro-3-(3,4,5-trichlorophenyl)cyclopropane-1-carboxamido)-N-(3-(2,2-difluoroacetamido)-2,4-difluorophenyl)benzamide] has a pest or weed control at 50 µg/cm2 [1] of 50 to 100% and a pest or weed control at 50 µg/cm2 [2] of 50 to 100%.

Compound O=C(Nc1c(F)cc(NC(=O)C(Cl)Cl)cc1F)c1cc(NC(=O)[C@H]2[C@H](c3ccc(Cl)c(Cl)c3)C2(Cl)Cl)ccc1Cl [F1272, 2-Chloro-5-((1R,3R)-2,2-dichloro-3-(3,4-dichlorophenyl)cyclopropane-1-carboxamido)-N-(4-(2,2-dichloroacetamido)-2,6-difluorophenyl)benzamide] has a pest or weed control at 50 µg/cm2 [1] of 50 to 100% and a pest or weed control at 50 µg/cm2 [2] of 50 to 100%.
